“Also recorded” adds a separate entry of the source.
How the values were obtained:
C. jejuni = experiment: Kill or inhibit growth/proliferation; morphology, biofilm and growth disruption (Tables 5, 6); type: cell-based, Campylobacter jejuni; set-up: key: A: Peptide aggregates; B: Less hyphal formation; Clumps; Diffuse clumps and small polyps; F: Diffuse growth; H: Thin; I: Growth inhibition; Microcolony formation; Rippled; Small polyps; Thick; W: Halo formation on top, microlonies on bottom; further: test concentration or dose not given here
S. pneumoniae = experiment: as above; type: cell-based, Streptococcus pneumoniae; set-up: key: A: Peptide aggregates; B: Less hyphal formation; Clumps; Diffuse clumps and small polyps; F: Diffuse growth; H: Thin; I: Growth inhibition; Microcolony formation; Rippled; Small polyps; Thick; W: Halo formation on top, microlonies on bottom; further: test concentration or dose not given here
E. faecalis = experiment: as above; type: cell-based, Enterococcus faecalis; set-up: key: A: Peptide aggregates; B: Less hyphal formation; Clumps; Diffuse clumps and small polyps; F: Diffuse growth; H: Thin; I: Growth inhibition; Microcolony formation; Rippled; Small polyps; Thick; W: Halo formation on top, microlonies on bottom
M. luteus = experiment: as above; type: cell-based, Micrococcus luteus; set-up: key: A: Peptide aggregates; B: Less hyphal formation; Clumps; Diffuse clumps and small polyps; F: Diffuse growth; H: Thin; I: Growth inhibition; Microcolony formation; Rippled; Small polyps; Thick; W: Halo formation on top, microlonies on bottom
MRSA = experiment: as above; type: cell-based, Methicillin-resistant Staphylococcus aureus; set-up: key: A: Peptide aggregates; B: Less hyphal formation; Clumps; Diffuse clumps and small polyps; F: Diffuse growth; H: Thin; I: Growth inhibition; Microcolony formation; Rippled; Small polyps; Thick; W: Halo formation on top, microlonies on bottom
microorganisms = experiment: Peptides having multiple activities (targeting/binding, antimicrobial, growth or phenotype altering)
From the text: In certain embodiments, peptides described herein can have multiple activities. Thus for example, a peptide can have both binding/targeting activity and antimicrobial activity. Such peptides can be used, e.g., in a chimeric construct, for any or all of these properties. Thus, for example, a peptide designated “B” in Table 8 can be used as a targeting peptide. If it is also designated G or M it can also be used for antimicrobial activity.

S. epidermidis = experiment: Kill or inhibit growth/proliferation; morphology, biofilm and growth disruption (Tables 5, 6); type: cell-based, Staphylococcus epidermidis; set-up: key: A: Peptide aggregates; B: Less hyphal formation; Clumps; Diffuse clumps and small polyps; F: Diffuse growth; H: Thin; I: Growth inhibition; Microcolony formation; Rippled; Small polyps; Thick; W: Halo formation on top, microlonies on bottom; further: test concentration or dose not given here
[1] = tested on: microorganisms (e.g., bacteria, yeasts, fungi); experiment: Targeting peptide binding to target microorganisms (Table 3); details: preferably 1x PBS; for Target(s): microorganism(s) the targeting peptide binds
E. coli = experiment: Kill or inhibit growth/proliferation; morphology, biofilm and growth disruption (Tables 5, 6); type: cell-based, Escherichia coli; set-up: key: A: Peptide aggregates; B: Less hyphal formation; Clumps; Diffuse clumps and small polyps; F: Diffuse growth; H: Thin; I: Growth inhibition; Microcolony formation; Rippled; Small polyps; Thick; W: Halo formation on top, microlonies on bottom; further: test concentration or dose not given here
[2] = binding in aqueous buffers depending on peptide solubility
[3] = peptide binding conducted in aqueous buffers varied by peptide solubility
Wherever Organism, effect is given: test concentration or dose not given here.

| Substance | Organism, effect (M. luteus) | Activities (microorganisms) | Target(s) [1, 2] | further results |
| --- | --- | --- | --- | --- |
| DLLKSLLGQDGAKNDEIIEFIKIIMEK [PF-591] |  |  |  | Organism, effect (C. jejuni): C. jejuni (C); Organism, effect (S. pneumoniae): S. pneumoniae (R); Organism, effect (E. faecalis): E. faecalis (A) |
| EILNNNQVIKELTMKYKTQFESNLGGWTARARR [PF-580] | M. luteus (C) | G B |  | Organism, effect (S. pneumoniae): S. pneumoniae (C); Organism, effect (MRSA): MRSA (M); Organism, effect (S. epidermidis): S. epidermidis (M) |
| LMFFSENMDKRDTLSGKFRYFAGSKVIKLMNWLSENGK [PF-226] | M. luteus (T) | G B | A. baumannii | Organism, effect (S. epidermidis): S. epidermidis (C) |
| MGIIAGIIKVIKSLIEQFTGK [PF-007] | M. luteus (A) | G B |  | Organism, effect (E. faecalis): E. faecalis (A); Organism, effect (E. coli): E. coli (A); Organism, effect (MRSA): MRSA (R); Organism, effect (S. epidermidis): S. epidermidis (A) |
| PF-059 (TITLKAGIERALHEEVPGVIEVEQVF; Peptide with targeting and/or antimicrobial activity) |  |  |  | Organism, effect (C. jejuni): C. jejuni (C) |
| PF-125: peptide having multiple activities (YVVGALVILAVAGLIYSMLRKA; Peptide with targeting and/or antimicrobial activity) | M. luteus (C) | G B |  | Organism, effect (S. epidermidis): S. epidermidis (D) |
| PF-212: peptide having multiple activities (NDSKASN; Peptide with targeting and/or antimicrobial activity) | M. luteus (M) | G B | M. luteus; also recorded: P. aeruginosa |  |
| PF-215: peptide having multiple activities (ELKITNYNVNTVLYRYYKWGNDLCE; Peptide with targeting and/or antimicrobial activity) | M. luteus (T) | G B | S. epidermidis; also recorded: M. luteus; also recorded: P. aeruginosa; also recorded: A. baumannii |  |
| PF-224: peptide having multiple activities (DYFYITLSQKNTF; Peptide with targeting and/or antimicrobial activity) | M. luteus (T) | G B | S. epidermidis; also recorded: P. aeruginosa; also recorded: A. baumannii |  |
| PF-234: peptide having multiple activities (RTPYILRS; Peptide with targeting and/or antimicrobial activity) | M. luteus (T) | G B | S. epidermidis; also recorded: M. luteus |  |
| PF-235: peptide having multiple activities (GIPFSKPHKRQVNYMKSDVLAYIEQNKMAHTA; Peptide with targeting and/or antimicrobial activity) | M. luteus (T) | G B | S. epidermidis; also recorded: M. luteus |  |
| PF-249: peptide having multiple activities (INSRYKISF; Peptide with targeting and/or antimicrobial activity) | M. luteus (R) | G B | S. epidermidis; also recorded: M. luteus |  |
| PF-250 (SEDIFGRLANEKANGLEELRKIRLKQ; Peptide with targeting and/or antimicrobial activity) | M. luteus (T) |  |  |  |
| PF-255: peptide having multiple activities (DHKINESQHNPFRSDSNKQNVDFF; Peptide with targeting and/or antimicrobial activity) | M. luteus (M) | G B | P. aeruginosa |  |
| PF-264 (MQSLSNRQSLIASYILMGIFLSFGYPPASLSKFFCRLSHL; Peptide with targeting and/or antimicrobial activity) | M. luteus (H) |  |  |  |
| PF-270: peptide having multiple activities (MYLTPYAWIAVGSIFAFSVTTIKIGDQNDEKQKSHKNDVHKR; Peptide with targeting and/or antimicrobial activity) | M. luteus (H) | G B | S. epidermidis; also recorded: M. luteus; also recorded: P. aeruginosa |  |
| PF-271: peptide having multiple activities (AAQPQTTSP; Peptide with targeting and/or antimicrobial activity) | M. luteus (T) | G B | S. epidermidis; also recorded: M. luteus; also recorded: P. aeruginosa; also recorded: A. baumannii |  |
| PF-274 (SIQEAEKIIKNDPFYIHDVADYDFMWFEPSKSLEEIKEFV; Peptide with targeting and/or antimicrobial activity) | M. luteus (M) |  |  |  |
| PF-276: peptide having multiple activities (LDLALSTNSLNLEGFSF; Peptide with targeting and/or antimicrobial activity) | M. luteus (M) | G B | S. epidermidis |  |
| PF-357: peptide having multiple activities (chain 1 MLTIIIGFIFWTMTLMLGYLIGEREGRKHE; chain 2 MLTIIIGFIFWTMTLMLGYLIGEREGRKHE; Peptide with targeting and/or antimicrobial activity) | M. luteus (C) | G B |  | Organism, effect (S. pneumoniae): S. pneumoniae (M); Organism, effect (MRSA): MRSA (M); Organism, effect (S. epidermidis): S. epidermidis (M) |
| PF-392: peptide having multiple activities (chain 1 DPAGCNDIVRKYCK; chain 2 DPAGCNDIVRKYCK; Peptide with targeting and/or antimicrobial activity) |  | G B |  | Organism, effect (C. jejuni): C. jejuni (A); Organism, effect (E. faecalis): E. faecalis (A); Target(s) [1, 3]: S. epidermidis; also recorded: B. subtilis; also recorded: S. pneumoniae; also recorded: C. jeikeium; also recorded: C. jejuni; Organism, effect (MRSA): MRSA (S) |
| PF-456: peptide having multiple activities (chain 1 TCVKPRTIN; chain 2 TCVKPRTIN; Peptide with targeting and/or antimicrobial activity) |  | G B |  | Organism, effect (C. jejuni): C. jejuni (A); Organism, effect (E. faecalis): E. faecalis (A); Target(s) [1, 3]: C. albicans and MRSA and E. faecalis and C. jeikeium and C. jejuni |
| PF-470: peptide having multiple activities (chain 1 PYSDSYATRPHWEQHRAR; chain 2 PYSDSYATRPHWEQHRAR; Peptide with targeting and/or antimicrobial activity) |  | G B |  | Organism, effect (C. jejuni): C. jejuni (A); Organism, effect (E. faecalis): E. faecalis (A); Target(s) [1, 3]: M. luteus and E. coli and MRSA and E. faecalis and C. jeikeium and C. jejuni |
| PF-590: peptide having multiple activities (YYQAKLFPLL; Peptide with targeting and/or antimicrobial activity) |  | G B |  | Organism, effect (C. jejuni): C. jejuni (R); Target(s) [1, 3]: S. epidermidis; also recorded: M. luteus; also recorded: E. coli; also recorded: E. faecalis; also recorded: C. jeikeium |
| PF-601: peptide having multiple activities (YRVTVKALE; Peptide with targeting and/or antimicrobial activity) |  | G B |  | Organism, effect (C. jejuni): C. jejuni (A); Organism, effect (E. faecalis): E. faecalis (A); Target(s) (microorganisms bound by the targeting peptide) ([1]; peptide binding in aqueous buffers varied by peptide solubility): C. jeikeium |
| VWENRKKYLENEIERHNVFLKLGQEVIKGLNALASRGR [PF-257] | M. luteus (R) | G B | S. epidermidis |  |

Reference: patent publication US20110039762A1, “TARGETED ANTIMICROBIAL MOIETIES” (C3 JIAN, INC., priority 2009, published 2011)
